# According to ChEMBL document CHEMBL1201862, “PubChem BioAssay data set” (2004):
# Activity calls are given as the source filed them.
# Key:
# [1] = inhibitors of Vif binding to APOBEC3G peptide, primary screen, biochemical, TR-FRET, GST-Vif 1-94, biotin-A3G peptide, dose response retest (AID 1117319); type: functional;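 note: TR-FRET signal of purified GST-Vif binding a biotinylated A3G peptide; inhibitors lower the FRET signal by blocking Vif and A3G binding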
# [2] = inhibitors of intracellular T. cruzi replication, confirmation, NIH3T3 host cells, beta-gal luminescence (AID 2044); type: functional, cell-based;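 note: intracellular parasites grown in NIH/3T3 mouse fibroblasts as host cells; luminescent beta-galactosidase reporter signal from transgenic T. cruzi replicating inside host cells; inhibitors lower the luminescence signal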
# [3] = cytotoxicity toward NIH3T3 fibroblasts, dose response, counter-screen, cell-based, ATP luminescence, mouse fibroblasts (AID 2010); type: functional;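 note: cells exposed to compound for about 90 hours before reading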
# Estrogen receptor beta [4] = target: T1, Estrogen receptor beta (Homo sapiens, UniProt Q92731);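 note: recombinant ER-beta bound to coactivator SRC1 peptide in presence of estradiol agonist; inhibitors block coactivator peptide binding and lower the FRET signal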
# Estrogen receptor = target: T2, Estrogen receptor (Homo sapiens, UniProt P03372);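 note: potency for inhibiting coactivator peptide recruitment to the receptor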
# T2 sequence (P03372 whole entry): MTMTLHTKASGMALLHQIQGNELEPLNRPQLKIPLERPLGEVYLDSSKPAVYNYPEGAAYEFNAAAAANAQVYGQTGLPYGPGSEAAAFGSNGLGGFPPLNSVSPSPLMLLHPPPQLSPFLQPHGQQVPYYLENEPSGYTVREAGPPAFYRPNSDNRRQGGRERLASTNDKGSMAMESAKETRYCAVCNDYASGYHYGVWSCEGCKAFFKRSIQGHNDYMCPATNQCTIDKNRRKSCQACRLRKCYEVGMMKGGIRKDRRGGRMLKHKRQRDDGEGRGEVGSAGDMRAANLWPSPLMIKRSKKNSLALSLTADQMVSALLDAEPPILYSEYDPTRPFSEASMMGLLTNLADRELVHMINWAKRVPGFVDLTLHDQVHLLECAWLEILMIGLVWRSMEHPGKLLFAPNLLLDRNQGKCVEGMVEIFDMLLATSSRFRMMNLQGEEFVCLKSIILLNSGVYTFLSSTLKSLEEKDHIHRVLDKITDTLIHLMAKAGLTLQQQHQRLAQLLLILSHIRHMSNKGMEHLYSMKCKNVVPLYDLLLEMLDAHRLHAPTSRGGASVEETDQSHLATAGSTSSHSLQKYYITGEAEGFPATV
# [5] = target: T3, Carboxy-terminal domain RNA polymerase II polypeptide A small phosphatase 1 (Homo sapiens, UniProt Q9GZU7); assay: inhibitors of CTDSP1, concentration-response testing, biochemical assay, absorbance-based, actives from ultra-high-throughput screening (AID 540297); type: functional
# T3 sequence (Q9GZU7 whole entry): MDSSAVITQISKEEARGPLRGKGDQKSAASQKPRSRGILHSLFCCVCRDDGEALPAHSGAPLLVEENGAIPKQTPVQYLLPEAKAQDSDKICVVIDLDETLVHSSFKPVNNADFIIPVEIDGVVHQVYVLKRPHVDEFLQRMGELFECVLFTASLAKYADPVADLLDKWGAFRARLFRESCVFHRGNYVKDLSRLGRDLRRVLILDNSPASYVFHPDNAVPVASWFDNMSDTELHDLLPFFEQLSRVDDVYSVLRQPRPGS
# Estrogen receptor beta [6] = target: T1, Estrogen receptor beta; assay: ERβ–SRC-3 coactivator interaction inhibitors, confirmation, orthogonal assay, biochemical, ELISA, streptavidin-HRP readout (AID 1060)
# [7] = cytotoxicity toward DRD oncogenic fibroblasts, dose response, cell-based, non-viral oncogenic, luminescence (AID 1934); type: functional; settings: Homo sapiens
# [8] = C. albicans growth with fluconazole, confirmation, fluorescence, retest (AID 2467); type: functional, cell-based
# BJ [9] = assay: cells; type: functional, cell-based; settings: Homo sapiens
# BJ [10] = assay: cytotoxicity toward BJ-TERT fibroblasts, dose response, cell-based, RAS-independent, luminescence (AID 1933); type: functional; settings: Homo sapiens
# BJ [11] = assay: cytotoxicity toward BJ-TERT-LT-ST fibroblasts, dose response, cell-based, RAS-independent, luminescence (AID 1935); type: functional; settings: Homo sapiens;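 note: BJ fibroblasts immortalized with TERT plus LT and ST oncogenes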
# [12] = NIH-3T3 fibroblast cytotoxicity, dose response, cytotoxicity control, cell-based, fluorescence, Alamar Blue, secondary assay (AID 2327); type: functional;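 note: NIH-3T3 mouse fibroblasts cultured with fluconazole at 8 µg/mL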
# [13] = target: FAD-linked sulfhydryl oxidase ALR (Homo sapiens, UniProt P55789); assay: inhibitors of human ALR sulfhydryl oxidase, dose response, biochemical, H2O2 detection, luminescence, cherry-pick (AID 493248)
# [14] = target: T4, Short transient receptor potential channel 4 (Mus musculus, UniProt Q9QUQ5); assay: mouse TRPC4 channel inhibitors, dose response, cell-based, HEK293 TRPC4/mu-opioid, Fluo-4 calcium (AID 434942); type: functional;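 note: potency of inhibitors blocking the TRPC4 calcium response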
# T4 sequence (Q9QUQ5 whole entry): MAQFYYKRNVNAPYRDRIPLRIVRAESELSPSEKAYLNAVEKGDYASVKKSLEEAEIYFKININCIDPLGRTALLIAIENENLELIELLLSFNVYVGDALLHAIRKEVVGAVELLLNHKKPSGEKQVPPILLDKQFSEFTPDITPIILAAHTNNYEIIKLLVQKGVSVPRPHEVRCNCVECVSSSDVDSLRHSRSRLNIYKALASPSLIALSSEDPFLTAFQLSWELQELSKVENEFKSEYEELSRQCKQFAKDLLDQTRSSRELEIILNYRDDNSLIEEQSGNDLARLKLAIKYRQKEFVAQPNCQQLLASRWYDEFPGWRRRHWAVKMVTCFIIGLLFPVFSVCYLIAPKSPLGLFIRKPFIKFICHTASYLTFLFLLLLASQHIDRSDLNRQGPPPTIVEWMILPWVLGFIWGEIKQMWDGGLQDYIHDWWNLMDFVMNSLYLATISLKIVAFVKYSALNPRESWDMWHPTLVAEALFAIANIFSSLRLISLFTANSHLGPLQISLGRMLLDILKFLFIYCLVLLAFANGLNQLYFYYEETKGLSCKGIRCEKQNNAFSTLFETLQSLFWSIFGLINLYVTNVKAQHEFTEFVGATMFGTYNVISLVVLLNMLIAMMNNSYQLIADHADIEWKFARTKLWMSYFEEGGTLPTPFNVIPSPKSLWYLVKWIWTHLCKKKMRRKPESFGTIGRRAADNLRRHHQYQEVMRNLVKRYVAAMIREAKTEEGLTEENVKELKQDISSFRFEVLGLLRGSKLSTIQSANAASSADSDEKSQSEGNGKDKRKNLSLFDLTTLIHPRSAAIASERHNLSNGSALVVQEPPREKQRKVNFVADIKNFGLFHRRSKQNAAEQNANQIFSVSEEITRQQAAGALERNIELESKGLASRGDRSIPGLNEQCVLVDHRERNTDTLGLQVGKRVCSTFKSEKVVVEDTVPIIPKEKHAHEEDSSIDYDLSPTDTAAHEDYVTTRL
# [15] = HepG2 cell cytotoxicity, dose response, cytotoxicity control, cherry-picked samples (AID 1159577); type: functional, cell-based
# [16] = P. falciparum 3D7-ScDHODH growth inhibitors, dose response, SYBR Green, dry powder samples (AID 1159570); type: functional, cell-based;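 note: parasite growth measured after 72 hours of compound exposure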
# [17] = P. falciparum ATP4 D1247Y mutant growth inhibitors, dose response, NITD609-resistant line, SYBR Green, dry powder (AID 1159571); type: functional, cell-based;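 note: parasites synchronized at ring stage by sorbitol before testing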
# [18] = P. falciparum Dd2 growth inhibitors, dose response, SYBR Green, cherry-picked samples (AID 1159567); type: functional, cell-based
# [19] = HepG2 cell cytotoxicity, dose response, cytotoxicity control, plate reader, dry powder samples (AID 1159569); type: functional, cell-based;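 note: inhibitor potency with signal falling toward the positive control level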
# [20] = P. falciparum Dd2 growth inhibitors, dose response, SYBR Green, dry powder samples (AID 1159566); type: functional, cell-based;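 note: potency for growth inhibition with lower SYBR green DNA signal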
# Aminopeptidase N = target: T5, Aminopeptidase N (Plasmodium falciparum FcB1/Columbia, UniProt O96935); assay: P. falciparum M1AAP inhibitors, biochemical, fluorogenic H-Leu-NHMec substrate, 1536-well (AID 1445); parameters: species or system Plasmodium falciparum 3D7, 3D7
# T5 sequence (O96935 whole entry): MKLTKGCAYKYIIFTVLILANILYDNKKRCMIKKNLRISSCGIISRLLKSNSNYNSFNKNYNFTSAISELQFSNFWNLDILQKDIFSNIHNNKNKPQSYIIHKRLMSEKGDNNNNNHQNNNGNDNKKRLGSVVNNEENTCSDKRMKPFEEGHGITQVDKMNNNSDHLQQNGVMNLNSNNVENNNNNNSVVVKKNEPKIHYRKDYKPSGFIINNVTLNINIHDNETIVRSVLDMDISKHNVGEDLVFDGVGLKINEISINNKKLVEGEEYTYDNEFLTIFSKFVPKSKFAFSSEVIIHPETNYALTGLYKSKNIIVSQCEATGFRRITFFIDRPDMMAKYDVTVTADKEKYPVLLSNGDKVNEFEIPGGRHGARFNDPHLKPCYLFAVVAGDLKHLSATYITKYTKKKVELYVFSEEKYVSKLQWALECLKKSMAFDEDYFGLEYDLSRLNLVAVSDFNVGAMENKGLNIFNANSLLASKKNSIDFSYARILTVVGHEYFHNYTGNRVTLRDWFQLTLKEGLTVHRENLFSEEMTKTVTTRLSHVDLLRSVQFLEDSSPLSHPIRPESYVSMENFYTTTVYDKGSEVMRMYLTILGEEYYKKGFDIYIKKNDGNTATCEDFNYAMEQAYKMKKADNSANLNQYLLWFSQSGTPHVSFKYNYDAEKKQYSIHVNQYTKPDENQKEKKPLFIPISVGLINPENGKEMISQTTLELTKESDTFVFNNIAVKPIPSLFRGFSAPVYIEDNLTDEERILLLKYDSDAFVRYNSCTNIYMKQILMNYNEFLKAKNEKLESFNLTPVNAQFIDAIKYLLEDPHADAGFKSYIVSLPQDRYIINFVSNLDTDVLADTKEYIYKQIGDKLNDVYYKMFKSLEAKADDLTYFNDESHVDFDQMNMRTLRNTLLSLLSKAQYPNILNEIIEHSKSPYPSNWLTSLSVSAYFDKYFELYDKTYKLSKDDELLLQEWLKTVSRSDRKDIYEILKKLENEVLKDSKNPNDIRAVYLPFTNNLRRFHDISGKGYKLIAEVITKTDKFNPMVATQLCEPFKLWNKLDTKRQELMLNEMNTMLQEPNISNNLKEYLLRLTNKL
# Caspase-6 = target: T6, Caspase-6 (Homo sapiens, UniProt P55212); assay: human caspase-6 inhibitors, dose response, biochemical, VEID-R110 fluorescence, cherry-pick (AID 720632)
# T6 sequence (P55212 whole entry): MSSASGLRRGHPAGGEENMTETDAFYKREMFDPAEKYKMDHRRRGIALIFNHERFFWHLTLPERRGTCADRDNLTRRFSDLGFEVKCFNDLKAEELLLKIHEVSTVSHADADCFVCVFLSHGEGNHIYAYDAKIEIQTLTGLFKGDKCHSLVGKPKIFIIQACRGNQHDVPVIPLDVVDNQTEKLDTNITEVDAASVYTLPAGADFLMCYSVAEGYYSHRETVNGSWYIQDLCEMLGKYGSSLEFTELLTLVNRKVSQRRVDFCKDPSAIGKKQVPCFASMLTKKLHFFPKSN
# [21] = cytotoxicity in KRAS-transformed pancreatic duct cells, primary screen, cell-based, fluorescence, HTS (AID 431); type: functional; settings: Homo sapiens;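 note: cell line used: HPDE-C7K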
# [22] = cytotoxicity in HPDE-C7 cells, cell-based, fluorescence, HTS (AID 430); type: functional; settings: Homo sapiens
# [23] = growth suppression of beta-catenin-knockout colon cells, dose response, cell-based, HCT116, human colon tumor (AID 1045); type: functional;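 note: HCT116 colon tumor cells with beta catenin knocked out; cells exposed to compound for 60 hours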
# [24] = growth suppression of PTEN-null colon cells, dose response, cell-based, HCT116 PTEN knockout (AID 1047); type: functional;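 note: HCT116 colon tumor cells with PTEN knocked out; cells exposed to compound for 60 hours before readout; potency for loss of cell viability measured by luminescence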
# T1 sequence (Q92731 whole entry): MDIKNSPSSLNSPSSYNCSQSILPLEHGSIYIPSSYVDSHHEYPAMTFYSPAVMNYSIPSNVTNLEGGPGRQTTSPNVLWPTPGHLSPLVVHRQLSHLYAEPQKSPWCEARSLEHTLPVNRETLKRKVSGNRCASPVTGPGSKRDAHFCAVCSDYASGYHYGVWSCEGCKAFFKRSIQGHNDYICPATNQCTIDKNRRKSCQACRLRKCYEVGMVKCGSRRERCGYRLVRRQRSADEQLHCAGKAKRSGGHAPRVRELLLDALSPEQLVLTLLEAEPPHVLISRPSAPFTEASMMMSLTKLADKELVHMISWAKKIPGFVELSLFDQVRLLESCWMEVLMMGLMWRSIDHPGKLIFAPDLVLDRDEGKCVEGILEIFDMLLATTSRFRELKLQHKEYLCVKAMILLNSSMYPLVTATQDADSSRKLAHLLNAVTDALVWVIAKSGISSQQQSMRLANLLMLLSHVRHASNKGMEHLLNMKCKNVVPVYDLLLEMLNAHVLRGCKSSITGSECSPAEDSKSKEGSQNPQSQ
# FAD-linked sulfhydryl oxidase ALR, sequence (P55789 whole entry): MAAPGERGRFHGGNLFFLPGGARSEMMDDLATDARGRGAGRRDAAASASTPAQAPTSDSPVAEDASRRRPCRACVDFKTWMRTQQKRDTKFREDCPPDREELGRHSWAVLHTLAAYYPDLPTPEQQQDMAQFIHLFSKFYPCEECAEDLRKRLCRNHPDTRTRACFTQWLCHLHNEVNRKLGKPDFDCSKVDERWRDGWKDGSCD
smiles,measurement,setting,value
CC(=O)N1CCc2cc(S(=O)(=O)NCCC(=O)Nc3cccc(C)c3C)ccc21,IC50,[1],> 100 µM (active)
O=C(C1=C[C@H](C2CCCCC2)C[C@H](OCCCCO)O1)N1CCN(Cc2ccc3c(c2)OCO3)CC1,EC50,cells,0.058 µM (active)
same,EC50,[2],< 0.1 µM (active)
same,EC50,[3],> 60 µM (not active)
O=C1C2CCCN2C(c2ccccc2)N1c1nccs1 (stereo not drawn),IC50,[1],> 100 µM (active)
CCc1cccc(NC(=O)CN(C)S(=O)(=O)c2cccc3nsnc23)c1,IC50,[1],> 100 µM (active)
O=C(Cn1c(=O)n(Cc2ccco2)c(=O)c2c3c(sc21)CCCCC3)Nc1ccccc1,IC50,Estrogen receptor beta [4],6.57 µM (active)
same,IC50,Estrogen receptor,7.24 µM (active)
same,IC50,[5],4.93 µM (active)
same,IC50,Estrogen receptor beta [6],24.9 µM (not active)
CCN(CC)c1ccc(/C=C/c2cccc[n+]2C)c(OC)c1,EC50,[7],15.2 µM (active)
same,EC50,cells,0.023 µM (active)
same,EC50,[2],< 0.1 µM (active)
same,EC50,[8],0.34 µM (active)
same,EC50,[3],> 60 µM (not active)
same,EC50,BJ [9],17.9 µM (active)
same,EC50,BJ [10],7.77 µM (active)
same,EC50,BJ [11],13.7 µM (inconclusive)
same,EC50,[12],> 150 µM (inactive)
same,AC50,[13],0.452 µM (active)
Cc1csc2ncc(C(=O)N3c4ccccc4CC3C)c(=O)n12 (stereo not drawn),IC50,Estrogen receptor beta [4],> 50 µM (not active)
O=[N+]([O-])c1ccc(CN2CCN(Cc3c[nH]c4ccccc34)CC2)cc1,EC50,[14],5.96 µM (active)
same,EC50,cells,0.249 µM (active)
same,EC50,[2],< 0.1 µM (active)
same,EC50,[3],> 60 µM (not active)
OC[C@H]1Nc2ccc(C#Cc3ccc(F)cc3)cc2[C@H]2[C@@H]1CCN2Cc1ccc2c(c1)OCO2,AC50,[15],26.2 µM (active)
same,AC50,[16],4 µM (active)
same,AC50,[17],3.18 µM (active)
same,AC50,[18],2.75 µM (active)
same,AC50,[19],20.9 µM (active)
same,AC50,[20],3.38 µM (active)
COc1ccc2c3c(n(C)c2c1)[C@H](CO)N(CC1CCOCC1)CC31CCN(Cc2nccs2)CC1,AC50,[16],0.845 µM (active)
same,AC50,[17],1.32 µM (active)
same,AC50,[18],1.46 µM (active)
same,AC50,[19],> 100 µM (inactive)
same,AC50,[20],1.1 µM (active)
O=C(O)CC1SC(N/N=C/c2ccc(-c3ccc(Cl)c([N+](=O)[O-])c3)o2)=NC1=O (stereo not drawn),IC50,Aminopeptidase N,54.1 µM (active)
same,AC50,Caspase-6,25.1 µM (active)
CCc1c(C)nc(SCC(=O)CC(=O)OC(C)C)c(C#N)c1C,EC50,[21],10.7 µM (active)
same,EC50,[22],7.84 µM (active)
CCOc1ccc(C2c3c(oc4ccccc4c3=O)C(=O)N2CCCN2CCOCC2)cc1 (stereo not drawn),IC50,[1],> 100 µM (active)
CCOc1[nH]c(/N=C/c2ccco2)c(C#N)c1C#N,IC50,Estrogen receptor beta [4],18.5 µM (active)
same,IC50,Estrogen receptor beta [6],18.2 µM (not active)
Oc1ccc(Br)cc1-c1nc2cnccn2c1NC1CCCC1,EC50,[23],36.4 µM (active)
same,EC50,[21],12.5 µM (active)
same,EC50,[22],17.3 µM (active)
same,AC50,[13],1.55 µM (active)
same,EC50,[24],38.9 µM (active)
